Measurements published in patent US20150175651A1, “NEUROACTIVE STEROIDS, COMPOSITIONS, AND USES THEREOF” (SAGE THERAPEUTICS, INC., priority 2012, published 2015).

Biological target: GABA receptor complex (GRC), [35S]-TBPS binding in rat brain cortical membranes
Assay: Steroid inhibition of [35S]-TBPS binding (radioligand displacement)
Conditions: 2 nM [35S]-TBPS, in the presence of 5 μM GABA, read-out: 35S-TBPS Radioligand Displacement (Control IC50)
Protocol: TBPS binding assays using rat brain cortical membranes in the presence of 5 μM GABA has been described (Gee et al, J. Pharmacol. Exp. Ther. 1987, 241, 346-353; Hawkinson et al, Mol. Pharmacol. 1994, 46, 977-985).
Briefly, cortices are rapidly removed following decapitation of carbon dioxide-anesthetized Sprague-Dawley rats (200-250 g). The cortices are homogenized in 10 volumes of ice-cold 0.32 M sucrose using a glass/teflon homogenizer and centrifuged at 1500×g for 10 min at 4° C. The resultant supernatants are centrifuged at 10,000×g for 20 min at 4° C. to obtain the P2 pellets. The P2 pellets are resuspended in 200 mM NaCl/50 mM Na—K phosphate pH 7.4 buffer and centrifuged at 10,000×g for 10 min at 4 OC. This ishing procedure is repeated twice and the pellets are resuspended in 10 volumes of buffer. Aliquots (100 μL) of the membrane suspensions are incubated with 2 nM [^35S]-TBPS and 5 μL, aliquots of test drug dissolved in dimethyl sulfoxide (DMSO) (final 0.5%) in the presence of 5 μM GABA. The incubation is brought to a final volume of 1.0 mL with buffer. Nonspecific binding is determined in the presence of 2 μM unlabeled TBPS and ranged from 15 to 25%. Following a 90 min incubation at room temp, the assays are terminated by filtration through glass fiber filters (Schleicher and Schuell No. 32) using a cell harvester (Brandel) and rinsed three times with ice-cold buffer. Filter bound radioactivity is measured by liquid scintillation spectrometry. Non-linear curve fitting of the overall data for each drug averaged for each concentration is done using Prism (GraphPad). […] The concentration of test compound producing 50% inhibition (IC50) of specific binding and the maximal extent of inhibition (Imax) are determined for the individual experiments with the same model used for the overall data and then the means+SEM.s of the individual experiments are calculated.
Various compounds are or can be screened to determine their potential as modulators of [^35S]-TBPS binding in vitro. These assays are or can be performed in accordance with the above discussed procedures.

| Compound | IC50 |
| --- | --- |
| CC(=O)O[C@H]1C[C@@]2(C)[C@@H](CC[C@@H]3[C@@H]2CC[C@]2(C)/C(=C\C#N)CC[C@@H]32)C[C@@H]1O [Compound 1, (2S,3S,5S,8R,9S,10S,13S,14S,Z)-17-(cyanomethylene)-3-hydroxy-10,13-dimethyl-hexadecahydro-1H-cyclopenta[a]phenanthren-2-yl acetate] | 100 to 500 nM |
| C[C@]12C[C@H](OC(=O)c3ccccc3)[C@@H](O)C[C@@H]1CC[C@@H]1[C@@H]2CC[C@]2(C)[C@@H](C(=O)CO)CC[C@@H]12 [Compound 2, (2S,3S,5S,8R,9S,10S,13S,14S,17S)-3-hydroxy-17-(2-hydroxyacetyl)-10,13-dimethyl-hexadecahydro-1H-cyclopenta[a]phenanthren-2-yl benzoate] | 100 to 500 nM |
| CC(=O)O[C@H]1C[C@@H]2[C@H](CC[C@]3(C)/C(=C\C#N)CC[C@@H]23)[C@@]2(C)CC[C@@H](O)C[C@H]12 [Compound 3, (3R,5S,6S,8R,9S,10R,13S,14S,Z)-17-(cyanomethylene)-3-hydroxy-10,13-dimethyl-hexadecahydro-1H-cyclopenta[a]phenanthren-6-yl acetate] | 100 to 500 nM |
| CC(=O)O[C@H]1C[C@]2(C)/C(=C\C#N)CC[C@H]2[C@@H]2CC[C@H]3C[C@H](O)CC[C@]3(C)[C@H]21 [Compound 4, (3R,5S,8S,9S,10S,11S,13S,14S,Z)-17-(cyanomethylene)-3-hydroxy-10,13-dimethyl-hexadecahydro-1H-cyclopenta[a]phenanthren-11-yl acetate] | 100 to 500 nM |
| CC(=O)OC[C@]12CC[C@@H](O)C[C@@H]1CC[C@@H]1[C@@H]2CC[C@]2(C)/C(=C\C#N)CC[C@@H]12 [Compound 5, ((3R,5S,8S,9S,10R,13S,14S,Z)-17-(cyanomethylene)-3-hydroxy-13-methyl-hexadecahydro-1H-cyclopenta[a]phenanthren-10-yl)methyl acetate] | 100 to 500 nM |
| CC(=O)O[C@H]1C[C@@]2(C)[C@@H](CC[C@@H]3[C@@H]2CC[C@]2(C)[C@@H](C(=O)CO)CC[C@@H]32)C[C@@H]1O [Compound 6] | 100 to 500 nM |
| CC(=O)O[C@H]1C[C@]2(C)[C@@H](C(=O)CO)CC[C@H]2[C@@H]2CC[C@H]3C[C@H](O)CC[C@]3(C)[C@H]21 [Compound 7, (3R,5S,8S,9S,10S,11S,13S,14S,17S)-3-hydroxy-17-(2-hydroxyacetyl)-10,13-dimethyl-hexadecahydro-1H-cyclopenta[a]phenanthren-11-yl acetate] | 100 to 500 nM |
| CC(=O)O[C@H]1C[C@@H]2[C@H](CC[C@]3(C)[C@@H](C(C)=O)CC[C@@H]23)[C@@]2(C)CC[C@@H](O)C[C@H]12 [Compound 8, (3R,5S,6S,8R,9S,10R,13S,14S,17S)-17-acetyl-3-hydroxy-10,13-dimethyl-hexadecahydro-1H-cyclopenta[a]phenanthren-6-yl acetate] | 100 to 500 nM |
| CC(=O)O[C@H]1C[C@@H]2[C@H](CC[C@]3(C)[C@@H](C(=O)CO)CC[C@@H]23)[C@@]2(C)CC[C@@H](O)C[C@H]12 [Compound 9, (3R,5S,6S,8R,9S,10R,13S,14S,17S)-3-hydroxy-17-(2-hydroxyacetyl)-10,13-dimethyl-hexadecahydro-1H-cyclopenta[a]phenanthren-6-yl acetate] | 100 to 500 nM |
| CC(=O)OC1CC2(C)C(=CC#N)CCC2C2CCC3CC(O)CCC3C12 (centres unmarked) [Compound 11] | 100 to 500 nM |
| CO[C@H]1CC[C@H]2[C@@H]3CC[C@H]4C[C@H](O)CC[C@]4(COC(C)=O)[C@H]3CC[C@]12C [Compound 13] | 100 to 500 nM |
